In article PMC7252619 (PLoS ONE, 2020):
Where two headings read alike, the source gives them in different places.

Assays:
[1] = target: T1, DAPK1 (Homo sapiens, UniProt P53355); test: Kinase activity test (ReactionBiology), % enzyme activity relative to DMSO; assay type: biochemical; settings: DAPK1; for % Enzyme Activity (relative to DMSO controls), Data 1: replicate Data 1; for % Enzyme Activity (relative to DMSO controls), Data 2: replicate Data 2
T1 construct: purchased ReactionBiology

[2] = target: T2, CDC7 (Homo sapiens, UniProt O00311); test: as above; assay type: biochemical; settings: CDC7; for % Enzyme Activity (relative to DMSO controls), Data 1: replicate Data 1; for % Enzyme Activity (relative to DMSO controls), Data 2: replicate Data 2;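 on all read-outs here: each drug screened at both 10 µM and 1 µM across a ten-kinase panel, activity expressed as percent of DMSO control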
T2 construct: purchased ReactionBiology

[3] = target: T3, EPHB4 (Homo sapiens, UniProt P54760); test: as above; assay type: biochemical; settings: EPHB4; for % Enzyme Activity (relative to DMSO controls), Data 1: replicate Data 1; for % Enzyme Activity (relative to DMSO controls), Data 2: replicate Data 2;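 on all read-outs here: EPHB4 was one of ten selected kinases in the screening panel, with enzyme activity expressed as a percentage of DMSO controls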
T3 construct: purchased ReactionBiology
T3 sequence (P54760 16-987): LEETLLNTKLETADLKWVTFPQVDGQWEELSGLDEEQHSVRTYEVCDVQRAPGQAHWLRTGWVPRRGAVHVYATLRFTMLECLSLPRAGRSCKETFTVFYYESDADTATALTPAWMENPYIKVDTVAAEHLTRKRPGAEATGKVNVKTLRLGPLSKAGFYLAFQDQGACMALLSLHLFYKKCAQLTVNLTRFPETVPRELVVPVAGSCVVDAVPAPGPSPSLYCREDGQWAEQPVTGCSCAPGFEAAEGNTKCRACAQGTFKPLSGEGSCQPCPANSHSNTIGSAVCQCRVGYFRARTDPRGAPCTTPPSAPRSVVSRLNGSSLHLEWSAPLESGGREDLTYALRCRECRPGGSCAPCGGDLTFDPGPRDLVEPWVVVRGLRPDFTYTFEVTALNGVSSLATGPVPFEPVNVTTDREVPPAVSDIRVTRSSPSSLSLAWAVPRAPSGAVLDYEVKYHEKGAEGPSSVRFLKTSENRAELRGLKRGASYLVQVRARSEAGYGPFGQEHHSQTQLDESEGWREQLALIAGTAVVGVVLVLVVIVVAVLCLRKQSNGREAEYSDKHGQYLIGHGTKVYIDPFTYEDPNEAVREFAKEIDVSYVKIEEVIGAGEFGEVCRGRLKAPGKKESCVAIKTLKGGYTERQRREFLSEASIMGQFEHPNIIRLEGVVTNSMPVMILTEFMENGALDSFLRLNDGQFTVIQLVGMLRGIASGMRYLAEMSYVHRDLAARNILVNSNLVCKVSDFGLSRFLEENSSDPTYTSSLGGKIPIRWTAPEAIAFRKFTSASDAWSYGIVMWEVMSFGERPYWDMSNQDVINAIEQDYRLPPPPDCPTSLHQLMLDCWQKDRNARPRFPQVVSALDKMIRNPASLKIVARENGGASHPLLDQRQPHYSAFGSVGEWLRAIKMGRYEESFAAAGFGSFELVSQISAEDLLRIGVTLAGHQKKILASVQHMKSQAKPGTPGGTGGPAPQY

[4] = target: T4, CK1d (Homo sapiens, UniProt P48730); test: as above; assay type: biochemical; settings: CK1d
T4 construct: purchased ReactionBiology

[5] = target: VEGFR2 (Homo sapiens, UniProt P35968); test: as above; assay type: biochemical; parameters: purchased ReactionBiology; settings: VEGFR2;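 further: VEGFR2 was one member of a ten-kinase screening panel testing marketed FDA-approved drugs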
[6] = target: T5, NEK2 (Homo sapiens, UniProt P51955); test: as above; assay type: biochemical; settings: NEK2;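 further: FDA-approved drugs chosen by structure-based repositioning, each screened at 10 or 1 µM for kinase activity, expressed as percent of DMSO controls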
T5 construct: purchased ReactionBiology
T5 sequence (P51955 1-445): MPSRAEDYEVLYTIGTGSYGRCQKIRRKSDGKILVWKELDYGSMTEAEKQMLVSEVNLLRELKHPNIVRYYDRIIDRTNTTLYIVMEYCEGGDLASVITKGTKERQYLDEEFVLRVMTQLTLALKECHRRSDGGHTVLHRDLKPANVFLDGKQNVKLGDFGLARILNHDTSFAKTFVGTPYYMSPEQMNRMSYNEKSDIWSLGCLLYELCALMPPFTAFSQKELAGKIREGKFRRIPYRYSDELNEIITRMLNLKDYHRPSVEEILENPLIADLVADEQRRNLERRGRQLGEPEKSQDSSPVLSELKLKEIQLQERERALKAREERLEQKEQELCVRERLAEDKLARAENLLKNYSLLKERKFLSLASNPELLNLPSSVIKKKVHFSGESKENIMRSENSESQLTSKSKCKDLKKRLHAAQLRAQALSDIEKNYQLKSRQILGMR

[7] = WST-1 cytotoxicity assay on Jurkat cells (T-cell line); assay type: cell-based, human; settings: human, Jurkat cells (T-cell line), mean of 4 independent measures, read-out: Cytotoxicity, WST-1 Jurkat IC 50 (µM) Mean
Experimental: Compounds were prepared as 10 mM stock solutions in dimethylsulfoxide (DMSO)and were tested at 50-10-1-0.1-0.01 and 0.001 μM in the 4 assays.
The human B cell line RPMI1788 (American Type Culture Collection, USA) and the human T cell line Jurkat (European Collection of Cell Cultures, ECACC, England) were maintained in RPMI1640 culture medium (BioWhittaker®, Lonza, Verviers, Belgium) containing 10% foetal calf serum (FCS, HyClone® Thermo Scientific, United Kingdom) and 5 μg/mL gentamicin sulphate (BioWhittaker®, Lonza, Verviers, Belgium) at 37°C and 5% CO2.
WST-1 assays on RPMI-1788 cells and Jurkat cells were performed as follows: 20 μL of test compound dilution were added to each well containing exponential growing cells and the plates were incubated for 48 h at 37°C, 5% CO2. Untreated cells and positive control (1% triton X-100, for the last 15 min) served as reference for maximum and minimum viability. At the end of incubation 100 μL of supernatant were removed and replaced by 10 μL of WST-1 solution (Cell Proliferation Reagent WST-1, Roche Applied Science).

[8] = WST-1 cytotoxicity assay on RPMI1788 cells (B-cell line); assay type: cell-based, human; settings: human, RPMI1788 cells (B-cell line), mean of 4 independent measures, read-out: Cytotoxicity, WST-1 RPMI 1788 IC 50 (µM) Mean
[9] = tested on: human PBMCs (responder cells) with RPMI1788 stimulator cells; test: Mixed Lymphocyte Reaction (MLR, T cell assay), 3H-thymidine incorporation; assay type: cell-based; settings: for IC50: Homo sapiens, RPMI-1788, mean of 4 independent measures, read-out: T-cell efficacy, MLR IC 50 (µM) Mean
Experimental: In order to test the efficacy and selectivity of the hit compounds on B-cells, 4 assays were performed: B-cell assay, Mixed Lymphocyte Reaction (MLR), WST-1 assay on RPMI1788 cells (B-cell line) and cytotoxicity WST-1 assay on Jurkat cells (T-cell line). Compounds were prepared as 10 mM stock solutions in dimethylsulfoxide (DMSO)and were tested at 50-10-1-0.1-0.01 and 0.001 μM in the 4 assays.
Blood samples of healthy volunteers were collected at the Red Cross of Mechelen, Belgium. Each donor consents to the use of their blood for research purposes. […] The human B cell line RPMI1788 (American Type Culture Collection, USA) and the human T cell line Jurkat (European Collection of Cell Cultures, ECACC, England) were maintained in RPMI1640 culture medium (BioWhittaker®, Lonza, Verviers, Belgium) containing 10% foetal calf serum (FCS, HyClone® Thermo Scientific, United Kingdom) and 5 μg/mL gentamicin sulphate (BioWhittaker®, Lonza, Verviers, Belgium) at 37°C and 5% CO2.
MLR assay (T cell assay): Freshly isolated human PBMCs (responder cells) were resuspended in RPMI1640 medium containing 10% FCS and 5nμg/mL gentamicin sulphate. RPMI1788 cells (stimulator cells) were inactivated by treatment with mitomycin C (Kyowa®, Takeda Belgium, Brussels, Belgium) for 20 min at 37°C, washed and finally suspended in culture medium. An amount of 100 μL of each cell suspension was mixed with 20 μL of diluted compound. The mixed cells were cultured at 37°C for 6 days in 5% CO2. DNA synthesis was assayed by the addition of 10 μCi (methyl-3H) thymidine (Perkin Elmer, Zaventem, Belgium) per well during the last 18 h in culture. Thereafter, the cells were harvested on glass filter paper and the counts per minute determined in a liquid scintillation counter (TopCount, Perkin Elmer, Zaventem, Belgium).

[10] = tested on: human CD19+ B cells; test: B-cell assay: IgG production of ODN2006-stimulated primary B cells (AlphaLISA); assay type: cell-based; settings: Homo sapiens, B-cell, 168 h
[11] = 1 uM, Average, read-out: % Enzyme Activity (relative to DMSO controls), Average
[12] = 1 uM, replicate Data 1, read-out: % Enzyme Activity (relative to DMSO controls), Data 1
[13] = 1 uM, replicate Data 2, read-out: % Enzyme Activity (relative to DMSO controls), Data 2
[14] = 10 uM, Average, read-out: % Enzyme Activity (relative to DMSO controls), Average
[15] = 10 uM, replicate Data 1, read-out: % Enzyme Activity (relative to DMSO controls), Data 1
[16] = 10 uM, replicate Data 2, read-out: % Enzyme Activity (relative to DMSO controls), Data 2
[17] = compound 1μM, relative to DMSO controls, read-out: % Enzyme activity at 1μM
[18] = compound 10μM, relative to DMSO controls, read-out: % Enzyme activity at 10μM

T1 sequence (P53355 whole entry): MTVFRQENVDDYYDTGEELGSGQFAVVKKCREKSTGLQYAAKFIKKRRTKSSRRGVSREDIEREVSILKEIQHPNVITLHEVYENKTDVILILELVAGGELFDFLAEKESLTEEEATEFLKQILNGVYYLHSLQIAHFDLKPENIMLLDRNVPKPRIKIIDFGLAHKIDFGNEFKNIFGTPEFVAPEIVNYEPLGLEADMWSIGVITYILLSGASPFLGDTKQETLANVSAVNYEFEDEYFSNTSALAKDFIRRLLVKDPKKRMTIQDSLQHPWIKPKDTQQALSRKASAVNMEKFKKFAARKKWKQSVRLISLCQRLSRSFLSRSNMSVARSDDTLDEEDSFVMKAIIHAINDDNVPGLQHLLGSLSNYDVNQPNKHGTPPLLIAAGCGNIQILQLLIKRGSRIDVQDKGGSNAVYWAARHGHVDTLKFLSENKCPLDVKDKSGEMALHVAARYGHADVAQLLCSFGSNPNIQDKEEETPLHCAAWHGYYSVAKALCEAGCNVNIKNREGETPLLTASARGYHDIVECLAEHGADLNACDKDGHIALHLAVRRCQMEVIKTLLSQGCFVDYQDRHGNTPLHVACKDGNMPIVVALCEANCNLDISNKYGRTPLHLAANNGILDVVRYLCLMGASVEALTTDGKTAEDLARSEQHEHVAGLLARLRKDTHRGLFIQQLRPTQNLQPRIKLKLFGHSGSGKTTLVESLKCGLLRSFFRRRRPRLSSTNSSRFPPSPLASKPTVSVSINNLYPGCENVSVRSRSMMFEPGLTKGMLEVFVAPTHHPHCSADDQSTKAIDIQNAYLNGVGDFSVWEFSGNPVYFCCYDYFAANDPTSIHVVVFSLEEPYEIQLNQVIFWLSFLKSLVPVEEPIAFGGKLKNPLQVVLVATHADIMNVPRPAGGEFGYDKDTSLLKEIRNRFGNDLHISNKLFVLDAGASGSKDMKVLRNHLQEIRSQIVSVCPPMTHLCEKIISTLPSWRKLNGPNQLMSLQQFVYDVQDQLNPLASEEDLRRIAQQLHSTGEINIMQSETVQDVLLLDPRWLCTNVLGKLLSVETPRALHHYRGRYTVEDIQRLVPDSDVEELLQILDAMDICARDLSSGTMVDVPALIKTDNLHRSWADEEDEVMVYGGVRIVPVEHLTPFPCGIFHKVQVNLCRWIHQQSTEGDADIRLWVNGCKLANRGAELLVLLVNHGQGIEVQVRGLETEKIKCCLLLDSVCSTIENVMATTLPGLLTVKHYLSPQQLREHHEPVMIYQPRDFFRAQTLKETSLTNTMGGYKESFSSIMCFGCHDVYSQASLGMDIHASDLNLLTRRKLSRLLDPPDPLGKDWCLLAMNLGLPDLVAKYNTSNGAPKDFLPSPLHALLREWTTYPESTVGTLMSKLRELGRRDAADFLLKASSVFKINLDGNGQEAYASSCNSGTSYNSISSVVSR
T4 sequence (P48730 whole entry): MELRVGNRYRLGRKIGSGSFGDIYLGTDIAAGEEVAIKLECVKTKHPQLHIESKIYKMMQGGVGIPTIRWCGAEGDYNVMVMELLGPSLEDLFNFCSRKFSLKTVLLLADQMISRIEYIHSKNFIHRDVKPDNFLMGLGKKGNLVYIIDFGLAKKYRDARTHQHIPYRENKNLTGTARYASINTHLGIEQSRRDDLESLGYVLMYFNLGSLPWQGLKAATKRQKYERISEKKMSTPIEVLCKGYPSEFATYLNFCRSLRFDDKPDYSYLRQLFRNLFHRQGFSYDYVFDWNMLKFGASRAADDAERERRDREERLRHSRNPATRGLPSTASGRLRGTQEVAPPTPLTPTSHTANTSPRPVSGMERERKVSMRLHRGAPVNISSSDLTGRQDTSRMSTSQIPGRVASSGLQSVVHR
Sequence of VEGFR2 (P35968 20-1356): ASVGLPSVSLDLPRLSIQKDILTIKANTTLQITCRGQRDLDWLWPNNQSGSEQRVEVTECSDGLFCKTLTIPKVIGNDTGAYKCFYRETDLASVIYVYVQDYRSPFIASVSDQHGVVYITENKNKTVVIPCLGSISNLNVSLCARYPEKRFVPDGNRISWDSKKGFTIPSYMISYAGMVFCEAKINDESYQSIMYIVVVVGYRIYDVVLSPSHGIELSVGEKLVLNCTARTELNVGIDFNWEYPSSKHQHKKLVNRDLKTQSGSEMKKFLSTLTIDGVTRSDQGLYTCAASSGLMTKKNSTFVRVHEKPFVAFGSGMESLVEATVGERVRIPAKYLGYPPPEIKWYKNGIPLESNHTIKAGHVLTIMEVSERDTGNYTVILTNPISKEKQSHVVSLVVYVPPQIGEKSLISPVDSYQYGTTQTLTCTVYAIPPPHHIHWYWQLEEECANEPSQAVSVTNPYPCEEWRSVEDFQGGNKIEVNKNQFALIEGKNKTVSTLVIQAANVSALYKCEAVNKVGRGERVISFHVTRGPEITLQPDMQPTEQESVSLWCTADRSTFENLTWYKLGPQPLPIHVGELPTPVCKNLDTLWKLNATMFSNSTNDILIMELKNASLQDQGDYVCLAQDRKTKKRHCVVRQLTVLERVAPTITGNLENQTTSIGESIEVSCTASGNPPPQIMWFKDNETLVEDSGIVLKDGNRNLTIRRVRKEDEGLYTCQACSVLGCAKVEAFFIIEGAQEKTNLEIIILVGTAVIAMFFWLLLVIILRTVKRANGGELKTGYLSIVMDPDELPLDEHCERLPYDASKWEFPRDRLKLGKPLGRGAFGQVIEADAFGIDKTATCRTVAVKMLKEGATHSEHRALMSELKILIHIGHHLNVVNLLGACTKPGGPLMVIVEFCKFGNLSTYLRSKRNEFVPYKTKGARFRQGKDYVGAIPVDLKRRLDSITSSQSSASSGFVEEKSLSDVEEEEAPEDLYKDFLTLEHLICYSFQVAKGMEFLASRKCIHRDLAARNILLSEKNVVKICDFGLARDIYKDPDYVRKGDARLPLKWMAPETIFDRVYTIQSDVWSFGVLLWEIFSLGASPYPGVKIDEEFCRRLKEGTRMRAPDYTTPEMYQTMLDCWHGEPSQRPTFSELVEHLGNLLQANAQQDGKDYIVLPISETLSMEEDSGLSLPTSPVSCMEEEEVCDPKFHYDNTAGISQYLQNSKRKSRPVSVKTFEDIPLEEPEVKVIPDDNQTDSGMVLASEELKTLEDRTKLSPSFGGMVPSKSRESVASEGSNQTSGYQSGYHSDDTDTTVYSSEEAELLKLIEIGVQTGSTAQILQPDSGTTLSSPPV
T2 sequence (O00311 whole entry): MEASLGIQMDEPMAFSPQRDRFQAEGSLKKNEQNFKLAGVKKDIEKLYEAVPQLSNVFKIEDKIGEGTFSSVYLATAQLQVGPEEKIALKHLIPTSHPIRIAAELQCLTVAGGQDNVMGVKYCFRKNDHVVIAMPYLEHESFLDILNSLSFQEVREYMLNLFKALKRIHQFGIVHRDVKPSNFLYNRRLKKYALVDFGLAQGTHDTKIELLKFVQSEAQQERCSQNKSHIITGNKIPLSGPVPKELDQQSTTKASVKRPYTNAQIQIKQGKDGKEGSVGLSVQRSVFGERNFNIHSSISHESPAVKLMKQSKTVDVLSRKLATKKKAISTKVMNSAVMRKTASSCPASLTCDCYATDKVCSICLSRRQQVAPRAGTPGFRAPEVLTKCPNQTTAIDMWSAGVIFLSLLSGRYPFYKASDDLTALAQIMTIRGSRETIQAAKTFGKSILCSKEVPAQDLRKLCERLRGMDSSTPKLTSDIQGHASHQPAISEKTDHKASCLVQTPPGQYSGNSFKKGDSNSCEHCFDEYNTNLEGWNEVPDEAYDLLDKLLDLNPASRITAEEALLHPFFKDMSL
T2 sequence (Q9UBU7 whole entry partner): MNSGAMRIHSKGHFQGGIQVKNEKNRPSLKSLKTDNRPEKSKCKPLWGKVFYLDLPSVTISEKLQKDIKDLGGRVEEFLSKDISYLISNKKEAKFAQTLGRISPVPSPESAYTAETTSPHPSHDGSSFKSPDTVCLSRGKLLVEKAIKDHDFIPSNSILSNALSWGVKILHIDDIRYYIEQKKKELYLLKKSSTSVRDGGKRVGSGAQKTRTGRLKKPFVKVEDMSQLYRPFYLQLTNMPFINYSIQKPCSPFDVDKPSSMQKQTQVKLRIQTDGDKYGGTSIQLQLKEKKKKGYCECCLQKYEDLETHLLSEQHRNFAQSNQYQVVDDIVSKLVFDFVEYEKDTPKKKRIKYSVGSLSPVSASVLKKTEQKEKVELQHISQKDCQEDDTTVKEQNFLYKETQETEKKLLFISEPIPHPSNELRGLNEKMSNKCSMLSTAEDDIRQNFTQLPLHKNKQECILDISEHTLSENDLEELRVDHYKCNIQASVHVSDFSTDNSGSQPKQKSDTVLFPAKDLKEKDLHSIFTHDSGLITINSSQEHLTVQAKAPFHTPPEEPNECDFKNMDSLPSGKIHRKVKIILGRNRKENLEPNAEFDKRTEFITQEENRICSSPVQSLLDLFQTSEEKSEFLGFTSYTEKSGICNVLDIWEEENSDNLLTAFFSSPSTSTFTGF

With `CC(=O)Nc1ccc(O)cc1` [Acetaminophen] the “% Enzyme Activity (relative to DMSO controls), Data 1” value ([1]; 1 uM) was 112.11%, the “% Enzyme Activity (relative to DMSO controls), Data 1” value ([1]; 10 uM) was 98.16% and the “% Enzyme Activity (relative to DMSO controls), Data 1” value ([2]; 1 uM) was 78.79%. For the same compound, the “% Enzyme Activity (relative to DMSO controls), Data 1” value ([2]; 10 uM) was 85.04%, the “% Enzyme Activity (relative to DMSO controls), Data 1” value ([3]; 1 uM) was 95.30% and the “% Enzyme Activity (relative to DMSO controls), Data 1” value ([3]; 10 uM) was 99.39%. For the same compound, the “% Enzyme Activity (relative to DMSO controls), Data 1” value ([4]; 1 uM, replicate Data 1) was 106.63%.
With `O=C(N[C@H](CO)[C@H](O)c1ccc([N+](=O)[O-])cc1)C(Cl)Cl` [Chloramphenicol] the “% Enzyme Activity (relative to DMSO controls), Average” value ([1]; 1 uM) was 109.45%, the “% Enzyme Activity (relative to DMSO controls), Average” value ([1]; 10 uM) was 99.12% and the “% Enzyme Activity (relative to DMSO controls), Average” value ([2]; 1 uM) was 70.23%. The “% Enzyme Activity (relative to DMSO controls), Average” value ([2]; 10 uM) was 72.94%, the “% Enzyme Activity (relative to DMSO controls), Average” value ([3]; 1 uM) was 98.03% and the “% Enzyme Activity (relative to DMSO controls), Average” value ([3]; 10 uM) was 95.14%. For the same compound, the “% Enzyme Activity (relative to DMSO controls), Average” value ([4]; 1 uM, Average) was 107.32%, the “% Enzyme Activity (relative to DMSO controls), Average” value ([5]; 1 uM, Average) was 102.81% and the “% Enzyme Activity (relative to DMSO controls), Average” value ([5]; 10 uM, Average) was 107.54%.
With `CC/C(=C(/CC)c1ccc(O)cc1)c1ccc(O)cc1` [Diethylstilbestrol, reference compound] the remaining activity at 1 µM [6, 11] was 97.9%, the remaining activity at 1 µM [6, 12] was 94.5% and the remaining activity at 1 µM [6, 13] was 101%. For the same compound, the remaining activity at 10 µM [6, 14] was 50.7%, the remaining activity at 10 µM [6, 15] was 44.7% and the remaining activity at 10 µM [6, 16] was 56.7%. It also gave a remaining activity at 1 µM [6, 17] of 97.9%, a remaining activity at 10 µM [6, 18] of 50.7% and an IC50 at 48 h [7] of 6.7 µM. For the same compound, the IC50 at 48 h [8] was 31.4 µM, the remaining activity at 1 µM [4, 11] was 106% and the remaining activity at 1 µM [4, 12] was 107%. The remaining activity at 1 µM [4, 13] was 104%, the remaining activity at 10 µM ([4]; Average, read-out: % Enzyme Activity (relative to DMSO controls), Average) was 84.8% and the remaining activity at 10 µM ([4]; replicate Data 1, read-out: % Enzyme Activity (relative to DMSO controls), Data 1) was 84.6%. For the same compound, the remaining activity at 10 µM ([4]; replicate Data 2, read-out: % Enzyme Activity (relative to DMSO controls), Data 2) was 85.1%.
`Cc1cc(C#N)cc(C)c1Oc1nc(Nc2ccc(C#N)cc2)nc(N)c1Br` [Etravirine, reference compound] gave an IC50 at 48 h [7] of 30.4 µM, an IC50 at 48 h [8] of 8 µM and an IC50 [9] of 7.27 µM. The “Selectivity Index (SI) MLR/B-cell” value ([9]; ratio of IC50 values) was 1.23, the IC50 ([10]; IgG production, ODN2006 0.1 μM, 7 days, mean of 4 independent experiments, read-out: B-cell IC50) was 5.9 µM and the remaining activity at 1 µM [5, 11] was 108%. For the same compound, the remaining activity at 1 µM [5, 12] was 108%, the remaining activity at 1 µM [5, 13] was 108% and the remaining activity at 10 µM [5, 14] was 41.1%. It also gave a remaining activity at 10 µM [5, 15] of 42.6%, a remaining activity at 10 µM [5, 16] of 39.5% and a remaining activity at 1 µM [5, 17] of 108%. The remaining activity at 10 µM [5, 18] was 41.1%.
With `C[C@]12CCC(=O)C=C1CC[C@@H]1[C@@H]2[C@@H](O)C[C@@]2(C)[C@H]1CC[C@]2(O)C(=O)CO` [Hydrocortisone] the “% Enzyme Activity (relative to DMSO controls), Average” value ([1]; 1 uM) was 114.18%, the “% Enzyme Activity (relative to DMSO controls), Data 1” value ([1]; 1 uM) was 116.14% and the “% Enzyme Activity (relative to DMSO controls), Data 2” value ([1]; 1 uM) was 112.22%. For the same compound, the “% Enzyme Activity (relative to DMSO controls), Average” value ([1]; 10 uM) was 104.62%, the “% Enzyme Activity (relative to DMSO controls), Data 1” value ([1]; 10 uM) was 110.58% and the “% Enzyme Activity (relative to DMSO controls), Data 2” value ([1]; 10 uM) was 98.66%. The “% Enzyme Activity (relative to DMSO controls), Average” value ([2]; 1 uM) was 74.38%, the “% Enzyme Activity (relative to DMSO controls), Data 1” value ([2]; 1 uM) was 77.32% and the “% Enzyme Activity (relative to DMSO controls), Data 2” value ([2]; 1 uM) was 71.43%. For the same compound, the “% Enzyme Activity (relative to DMSO controls), Average” value ([2]; 10 uM) was 75.76%, the “% Enzyme Activity (relative to DMSO controls), Data 1” value ([2]; 10 uM) was 77.92% and the “% Enzyme Activity (relative to DMSO controls), Data 2” value ([2]; 10 uM) was 73.60%. The “% Enzyme Activity (relative to DMSO controls), Average” value ([3]; 1 uM) was 102.86%, the “% Enzyme Activity (relative to DMSO controls), Data 1” value ([3]; 1 uM) was 105.83% and the “% Enzyme Activity (relative to DMSO controls), Data 2” value ([3]; 1 uM) was 99.88%. For the same compound, the “% Enzyme Activity (relative to DMSO controls), Average” value ([3]; 10 uM) was 91.65%, the “% Enzyme Activity (relative to DMSO controls), Data 1” value ([3]; 10 uM) was 91.79% and the “% Enzyme Activity (relative to DMSO controls), Data 2” value ([3]; 10 uM) was 91.51%. The “% Enzyme Activity (relative to DMSO controls), Average” value ([5]; 1 uM, Average) was 99.23%, the “% Enzyme Activity (relative to DMSO controls), Data 1” value ([5]; 1 uM, replicate Data 1) was 98.18% and the “% Enzyme Activity (relative to DMSO controls), Data 2” value ([5]; 1 uM, replicate Data 2) was 100.27%. The “% Enzyme Activity (relative to DMSO controls), Average” value ([5]; 10 uM, Average) was 102.28%, the “% Enzyme Activity (relative to DMSO controls), Data 1” value ([5]; 10 uM, replicate Data 1) was 99.63% and the “% Enzyme Activity (relative to DMSO controls), Data 2” value ([5]; 10 uM, replicate Data 2) was 104.92%.
In the case of `CN1CCN(CCCN2c3ccccc3Sc3ccc(Cl)cc32)CC1` [Prochlorperazine, reference compound], the remaining activity at 1 µM [6, 11] is reported as 70.1%, the remaining activity at 1 µM [6, 12] is reported as 67.7% and the remaining activity at 1 µM [6, 13] is reported as 72.5%. For the same compound, the remaining activity at 10 µM [6, 14] was 68.7%, the remaining activity at 10 µM [6, 15] was 69.6% and the remaining activity at 10 µM [6, 16] was 67.8%. For the same compound, the remaining activity at 1 µM [6, 17] was 70.1%, the remaining activity at 10 µM [6, 18] was 68.7% and the IC50 at 48 h [7] was 21.9 µM. It also gave an IC50 at 48 h [8] of 9.63 µM.
In the case of `C[C@@H]1CCN(C(=O)CC#N)C[C@@H]1N(C)c1ncnc2[nH]ccc12` [Tofacitinib], the IC50 at 48 h [7] is reported as > 50 µM and the IC50 at 48 h [8] is reported as > 50 µM.
With `N[C@@H](Cc1cc(I)c(Oc2ccc(O)c(I)c2)c(I)c1)C(=O)O` [Triiodothyronine] the IC50 at 48 h [7] was > 50 µM, the IC50 [9] was 44.2 µM and the IC50 ([10]; read-out: B-cell IC50 (μM)) was 36.8 µM.
